Assay results published in ChEMBL document CHEMBL5380815, “Probing Ligand Binding Sites on Large Proteins by Nuclear Magnetic Resonance Spectroscopy of Genetically Encoded Non-Canonical Amino Acids” (J Med Chem, 2023).
Activity calls are given as the source filed them. The calls are words filed in the database; no cut-off is given here.

Columns and labels:
[1] = biological target: T1, Replicase polyprotein 1ab (Severe acute respiratory syndrome coronavirus 2, UniProt P0DTD1); assay: Binding affinity to wild type SARS-COV2 main protease expressed in Escherichia coli BL21 (DE3) assessed as dissociation constant by small angle X-ray scattering analysis
[2] = biological target: T1, Replicase polyprotein 1ab; assay: Binding affinity to SARS-COV2 main protease assessed as dissociation constant by analytical ultracentrifugation analysis
[3] = biological target: T1, Replicase polyprotein 1ab; assay: Binding affinity to SARS-COV2 main protease assessed as dissociation constant by mass spectrometry analysis
SARS-CoV-2 = assay: Antiviral activity against SARS-COV2 infected in African green monkey Vero E6 cells assessed as reduction of viral titer by immunofocus assay; type: functional, organism-based; settings: Severe acute respiratory syndrome coronavirus 2, Vero C1008
[4] = biological target: Replicase polyprotein 1ab (Severe acute respiratory syndrome coronavirus 2) (UniProt P0DTD1); assay: Inhibition of wild type recombinant SARS-COV2 main protease expressed in Escherichia coli BL21 (DE3) using DABCYL-KTSAVLQSGFRKME-EDANS-NH2 as fluorogenic substrate at 1.5 to 50 uM preincubated for 10 mins followed by substrate addition by FRET assay; settings: dose 1.5-50 µM

SMILES	Kd [1] [nM]	Kd [2] [nM]	Kd [3] [nM]	EC50 (SARS-CoV-2) [nM]	inhibition [4]
CC(=O)[C@@H]1CSCC(=O)N[C@H](Cc2ccc(O)cc2)C(=O)N[C@@H](CC(C)C)C(=O)N[C@@H](CCC(N)=O)C(=O)N[C@@H](Cc2ccc(O)cc2)C(=O)N[C@@H](C)C(=O)N[C@@H](C(C)C)C(=O)N[C@@H](CC(C)C)C(=O)N[C@@H](CCCNC(=N)N)C(=O)N[C@@H](Cc2c[nH]cn2)C(=O)N[C@@H](CCCCN)C(=O)N[C@@H](CCCNC(=N)N)C(=O)N[C@@H](CCCNC(=N)N)C(=O)N[C@@H](CCC(=O)O)C(=O)C1	7000	2500	140		
CCOc1cc2ncc(C#N)c(Nc3ccc(F)c(Cl)c3)c2cc1NC(=O)/C=C/CN(C)C [PELITINIB]				1250	inactive
